Experimental data published in patent US9346815B2, “5-chloro-2-difluoromethoxyphenyl pyrazolopyrimidine compounds, compositions and methods of use thereof” (Genentech, Inc., priority 2014, dated 2016).

What was measured:
[1] = test system: JAK1-dependent STAT6 phosphorylation downstream of IL-13 stimulation in BEAS-2B human bronchial epithelial cells; assay: JAK1 pathway assay in BEAS-2B cells (IL-13-pSTAT6, MSD); assay type: cell-based; conditions: read-out: IL13-pSTAT6 EC50 (uM)_BEAS-2B
Summary of the method: (§1)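 TF-1 cells are starved of GM-CSF overnight and run in serum-free medium, while BEAS-2B cells stay in complete growth medium. Inhibition of STAT6 phosphorylation is measured by MSD.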

[2] = test system: JAK1-dependent STAT6 phosphorylation downstream of IL-13 stimulation in TF-1 human erythroleukemia cells; assay: JAK1 pathway assay in TF-1 cells (IL-13-pSTAT6, MSD); assay type: cell-based; conditions: Homo sapiens, TF-1, TF-1 cells, read-out: IL13-pSTAT6 EC50_TF-1
Summary of the method: as §1

[3] = biological target: isolated recombinant JAK2 kinase domain (Homo sapiens (Human), UniProt O60674); assay: JAK2 enzyme assay (Caliper LabChip, peptide phosphorylation); assay type: biochemical; conditions: 25 μM ATP
Chain of isolated recombinant JAK2 kinase domain (O60674 849-1124): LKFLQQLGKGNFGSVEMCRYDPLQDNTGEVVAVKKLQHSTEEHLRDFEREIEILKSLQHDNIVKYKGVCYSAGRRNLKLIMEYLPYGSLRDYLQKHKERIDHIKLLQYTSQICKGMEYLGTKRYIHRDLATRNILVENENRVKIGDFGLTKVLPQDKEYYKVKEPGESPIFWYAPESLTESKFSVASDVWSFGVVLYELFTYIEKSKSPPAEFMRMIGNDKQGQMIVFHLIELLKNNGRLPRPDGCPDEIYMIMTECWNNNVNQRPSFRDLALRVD

[4] = biological target: isolated recombinant JAK1 kinase domain (Homo sapiens (Human), UniProt P23458); assay: JAK1 enzyme assay (Caliper LabChip, peptide phosphorylation); assay type: biochemical; conditions: isolated recombinant JAK1 kinase domain, 25 μM ATP
Chain of isolated recombinant JAK1 kinase domain (P23458 875-1153): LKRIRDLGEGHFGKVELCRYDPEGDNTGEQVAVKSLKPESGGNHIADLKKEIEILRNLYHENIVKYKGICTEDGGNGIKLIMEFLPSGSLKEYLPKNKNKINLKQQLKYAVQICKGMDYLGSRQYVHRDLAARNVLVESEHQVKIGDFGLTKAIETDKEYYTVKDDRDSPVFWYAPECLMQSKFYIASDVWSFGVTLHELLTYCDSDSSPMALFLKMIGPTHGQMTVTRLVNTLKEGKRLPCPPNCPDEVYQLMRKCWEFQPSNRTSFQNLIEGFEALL

SMILES	EC50 [1] [µM]	EC50 [2] [nM]	Ki [3] [nM]	Ki [4] [nM]
CCN(Cc1cccnc1)C(=O)Cn1cc(NC(=O)c2cnn3cccnc23)c(-c2cc(Cl)ccc2OC(F)F)n1 [Example 301, N-[3-[5-chloro-2-(difluoromethoxy)phenyl]-1-[2-[ethyl(3-pyridylmethyl)amino]-2-oxo-ethyl]pyrazol-4-yl]pyrazolo[1,5-a]pyrimidine-3-carboxamide]	0.0095	3.4	0.36	0.33
CC(C)CN1C[C@@H]2CN(C(=O)Cn3cc(NC(=O)c4cnn5cccnc45)c(-c4cc(Cl)ccc4OC(F)F)n3)C[C@@H]2C1 [Example 28, N-[1-[2-[(3aS,6aR)-2-isobutyl-1,3,3a,4,6,6a-hexahydropyrrolo[3,4-c]pyrrol-5-yl]-2-oxo-ethyl]-3-[5-chloro-2-(difluoromethoxy)phenyl]pyrazol-4-yl]pyrazolo[1,5-a]pyrimidine-3-carboxamide]	0.177	3.5	0.84	0.82
O=C(CNCCn1cc(NC(=O)c2cnn3cccnc23)c(-c2cc(Cl)ccc2OC(F)F)n1)OC1CCCC1 [Example 307, cyclopentyl 2-[2-[3-[5-chloro-2-(difluoromethoxy)phenyl]-4-(pyrazolo[1,5-a]pyrimidine-3-carbonylamino)pyrazol-1-yl]ethylamino]acetate]	0.025	6.1	0.59	1.45
N=C(N)CCCn1cc(NC(=O)c2cnn3cccnc23)c(-c2cc(Cl)ccc2OC(F)F)n1 [Example 305, N-[1-(4-amino-4-imino-butyl)-3-[5-chloro-2-(difluoromethoxy)phenyl]pyrazol-4-yl]pyrazolo[1,5-a]pyrimidine-3-carboxamide]	0.0426	10.9	0.32	0.61
CCN(Cc1ccnc(C)c1)C(=O)Cn1cc(NC(=O)c2cnn3cccnc23)c(-c2cc(Cl)ccc2OC(F)F)n1 [Example 299, N-[3-[5-chloro-2-(difluoromethoxy)phenyl]-1-[2-[ethyl-[(2-methyl-4-pyridyl)methyl]amino]-2-oxo-ethyl]pyrazol-4-yl]pyrazolo[1,5-a]pyrimidine-3-carboxamide]	0.0104	4.1	0.39	0.38
O=C(Nc1cn(CC(=O)N2CCC(N(CCC(F)(F)F)Cc3ccccc3)CC2)nc1-c1cc(Cl)ccc1OC(F)F)c1cnn2cccnc12 [Example 118, N-[1-[2-[4-[benzyl(3,3,3-trifluoropropyl)amino]-1-piperidyl]-2-oxo-ethyl]-3-[5-chloro-2-(difluoromethoxy)phenyl]pyrazol-4-yl]pyrazolo[1,5-a]pyrimidine-3-carboxamide]	0.303	100	4.45	2.57
CN1CC[C@@H]2[C@H](CCN2C(=O)Cn2cc(NC(=O)c3cnn4cccnc34)c(-c3cc(Cl)ccc3OC(F)F)n2)C1 [Example 61, N-[1-[2-[(3aR,7aR)-5-methyl-3,3a,4,6,7,7a-hexahydro-2H-pyrrolo[3,2-c]pyridin-1-yl]-2-oxo-ethyl]-3-[5-chloro-2-(difluoromethoxy)phenyl]pyrazol-4-yl]pyrazolo[1,5-a]pyrimidine-3-carboxamide]	0.0324	27.5	0.68	0.23
NC1CCN(C(=O)Cn2cc(NC(=O)c3cnn4cccnc34)c(-c3cc(Cl)ccc3OC(F)F)n2)CC1 [Example 66, N-[1-[2-(4-amino-1-piperidyl)-2-oxo-ethyl]-3-[5-chloro-2-(difluoromethoxy)phenyl]pyrazol-4-yl]pyrazolo[1,5-a]pyrimidine-3-carboxamide]	0.335	35.6	–	0.58
O=C(Nc1cn(CC(=O)N2CCCCC2)nc1-c1cc(Cl)ccc1OC(F)F)c1cnn2cccnc12 [Example 308, N-[3-[5-chloro-2-(difluoromethoxy)phenyl]-1-[2-oxo-2-(1-piperidyl)ethyl]pyrazol-4-yl]pyrazolo[1,5-a]pyrimidine-3-carboxamide]	0.0236	1.5	0.55	–
CN(C)C1CCN(c2nc(-c3cc(Cl)ccc3OC(F)F)c(NC(=O)c3cnn4cccnc34)s2)CC1 [Example 188, Pyrazolo[1,5-a]pyrimidine-3-carboxylic acid [4-(5-chloro-2-difluoromethoxy-phenyl)-2-(4-dimethylamino-piperidin-1-yl)-thiazol-5-yl]-amide]	0.0349	5.8	–	1.26
C[N+](C)(CCCc1ccccc1)C1CCN(C(=O)Cn2cc(NC(=O)c3cnn4cccnc34)c(-c3cc(Cl)ccc3OC(F)F)n2)CC1 [Example 124, [1-[2-[3-[5-chloro-2-(difluoromethoxy)phenyl]-4-(pyrazolo[1,5-a]pyrimidine-3-carbonylamino)pyrazol-1-yl]acetyl]-4-piperidyl]-dimethyl-(3-phenylpropyl)ammonium]	0.535	87.9	–	–
CN1CCN(C(=O)C2CCN(C(=O)Cn3cc(NC(=O)c4cnn5cccnc45)c(-c4cc(Cl)ccc4OC(F)F)n3)CC2)CC1 [Example 398, N-(3-(5-chloro-2-(difluoromethoxy)phenyl)-1-(2-(4-(4-methylpiperazine-1-carbonyl)piperidin-1-yl)-2-oxoethyl)-1H-pyrazol-4-yl)pyrazolo[1,5-a]pyrimidine-3-carboxamide]	0.0183	–	1.45	0.5
C[C@H]1COCCN1C1CCN(C(=O)Cn2cc(NC(=O)c3cnn4cccnc34)c(-c3cc(Cl)ccc3OC(F)F)n2)CC1 [Example 451, N-(3-(5-chloro-2-(difluoromethoxy)phenyl)-1-(2-(4-((S)-3-methyl-morpholino)piperidin-1-yl)-2-oxoethyl)-1H-pyrazol-4-yl)pyrazolo[1,5-a]pyrimidine-3-carboxamide]	0.0201	–	1.56	0.45
CN(C)C(=O)[C@@H]1CCCN1CC1CCN(C(=O)Cn2cc(NC(=O)c3cnn4cccnc34)c(-c3cc(Cl)ccc3OC(F)F)n2)CC1 [Example 423, N-(3-(5-chloro-2-(difluoromethoxy)phenyl)-1-(2-(4-(((S)-2-(dimethylcarbamoyl)pyrrolidin-1-yl)methyl)piperidin-1-yl)-2-oxoethyl)-1H-pyrazol-4-yl)pyrazolo[1,5-a]pyrimidine-3-carboxamide]	0.0312	–	2.79	0.73
COCCN1CCN(C(=O)Cn2cc(NC(=O)c3cnn4cccnc34)c(-c3cc(Cl)ccc3OC(F)F)n2)CC1 [Example 229, N-[3-[5-chloro-2-(difluoromethoxy)phenyl]-1-[2-[4-(2-methoxyethyl)piperazin-1-yl]-2-oxo-ethyl]pyrazol-4-yl]pyrazolo[1,5-a]pyrimidine-3-carboxamide]	0.0516	3.3	–	0.38
O=C(Nc1cn(CC(O)CN2CCCCC2)nc1-c1cc(Cl)ccc1OC(F)F)c1cnn2cccnc12 (stereo not drawn) [Example 405, N-(3-(5-chloro-2-(difluoromethoxy)phenyl)-1-(2-hydroxy-3-(piperidin-1-yl)propyl)-1H-pyrazol-4-yl)pyrazolo[1,5-a]pyrimidine-3-carboxamide]	0.0257	–	0.68	1.73
C[C@@H]1COCCN1C1CCN(C(=O)Cn2cc(NC(=O)c3cnn4cccnc34)c(-c3cc(Cl)ccc3OC(F)F)n2)CC1 [Example 449, N-(3-(5-chloro-2-(difluoromethoxy)phenyl)-1-(2-(4-((R)-3-methyl-morpholino)piperidin-1-yl)-2-oxoethyl)-1H-pyrazol-4-yl)pyrazolo[1,5-a]pyrimidine-3-carboxamide]	0.0136	–	1.1	0.38
CN1CCN(CC2CCN(C(=O)Cn3cc(NC(=O)c4cnn5cccnc45)c(-c4cc(Cl)ccc4OC(F)F)n3)CC2)CC1 [Example 350, N-[3-[5-chloro-2-(difluoromethoxy)phenyl]-1-(2-[4-[(4-methylpiperazin-1-yl)methyl]piperidin-1-yl]-2-oxoethyl)-1H-pyrazol-4-yl]pyrazolo[1,5-a]pyrimidine-3-carboxamide]	0.0094	–	1.42	0.43
COC(=O)CNCCn1cc(NC(=O)c2cnn3cccnc23)c(-c2cc(Cl)ccc2OC(F)F)n1 [Example 386, methyl 2-[(2-[3-[5-chloro-2-(difluoromethoxy)phenyl]-4-[pyrazolo[1,5-a]pyrimidine-3-amido]-1H-pyrazol-1-yl]ethyl)amino]acetate]	0.0297	–	0.56	1.06
CNC(=O)[C@@H]1CCCN1C1CCN(C(=O)Cn2cc(NC(=O)c3cnn4cccnc34)c(-c3cc(Cl)ccc3OC(F)F)n2)CC1 [Example 426, N-(3-(5-chloro-2-(difluoromethoxy)phenyl)-1-(2-(4-((S)-2-(methyl-carbamoyl)pyrrolidin-1-yl)piperidin-1-yl)-2-oxoethyl)-1H-pyrazol-4-yl)pyrazolo[1,5-a]pyrimidine-3-carboxamide]	0.0394	–	1.25	0.53
O=C(Nc1cn(CC(=O)N2CCC(N3CCCOCC3)CC2)nc1-c1cc(Cl)ccc1OC(F)F)c1cnn2cccnc12 [Example 441, N-(1-(2-(4-(1,4-oxazepan-4-yl)piperidin-1-yl)-2-oxoethyl)-3-(5-chloro-2-(difluoromethoxy)phenyl)-1H-pyrazol-4-yl)pyrazolo[1,5-a]pyrimidine-3-carboxamide]	0.0084	–	1.48	0.52
